Results as given in patent US9701646B2, “Small molecule inhibitors of PI3-kinase signaling” (Tufts University, priority 2013, dated 2017).
Where two headings read alike, the source gives them in different places.

What was measured:
[1] = tested on: A2780 human ovarian cancer cells; test: Cell viability of A2780 cells, ATP assay; format: cell-based; settings: for concentration at which cell viability was reduced by at least 50 percent / cell viability in combination with TRAIL / EC50: A2780, 24 h; for concentration at which cell viability was reduced by at least 50 percent: alone; for cell viability in combination with TRAIL: versus compound alone; for EC50: Homo sapiens
Description: (§1) A2780 human ovarian cancer cells were maintained in culture at 37° C., 5% CO2, complete medium for 24 h in the presence of various final concentrations of DM-PIT-1, YK-NCL-176, YK-NCL-198, or NK-YCL-240, each in DMSO, with or without 1 μg/mL TRAIL. DMSO alone was used as a negative control. Following the incubation, cell viability was measured using an ATP assay.
as §1, with “YK-NCL-217, YK-NCL-218, NK-YCL-219, YK-NCL-220, YK-NCL-234,” for “YK-NCL-176, YK-NCL-198,”, “YK-NCL-241,” for “NK-YCL-240,”

[2] = tested on: U87MG human glioblastoma cells; test: Cell viability of U87MG cells, ATP assay; format: cell-based; settings: for EC50: Homo sapiens, U-87 MG, 24 h
Description: U87MG human glioblastoma cells were maintained in culture at 37° C., 5% CO2, complete medium for 24 h in the presence of various final concentrations of YK-NCL-176, YK-NCL-177, YK-NCL-178, YK-NCL-179, YK-NCL-180, YK-NCL-183, YK-NCL-184, YK-NCL-185, YK-NCL-186, YK-NCL-187, YK-NCL-188, YK-NCL-189, YK-NCL-190, YK-NCL-191, YK-NCL-192, YK-NCL-193, YK-NCL-194, YK-NCL-195, YK-NCL-196, YK-NCL-197, NK-YCL-198, or YK-NCL-199, each in DMSO, with or without 1 μg/mL TRAIL. DMSO alone was used as a negative control. Following the incubation, cell viability was measured using an ATP assay.

[3] = tested on: T47D human breast cancer cells; test: Cell viability of T47D cells; format: cell-based
[4] = tested on: DU145 human prostate cancer cells; test: Cell viability of DU145 cells; format: cell-based
[5] = tested on: A2780 cells; test: In vitro wound closure (cell migration), A2780; format: cell-based, human; settings: A2780, up to 76 h
Description: A2780 cells and T47D cells were grown to confluence in separate cultures under conditions of 37° C., 5% CO2, and complete medium. At time zero, a pipette tip was dragged across the cells, producing a linear defect in the confluent layer of cells. Medium was then supplemented with various concentrations of DM-PIT-1, YK-NCL-176, or YK-NCL-240, or an equivalent volume of DMSO alone, and cells were maintained in culture for an additional 76 h. Linear defects were viewed with a microscope at 0, 21, 47, 69, and 76 h following addition of test agent, and the width of the defect was quantitated at each time point. This in vitro assay represents a model of wound closure.

[6] = biological target: Akt PH domain (Homo sapiens, UniProt P31749); test: Inhibition of Akt PH domain binding to PIP3; settings: in vitro
[7] = Micellar drug release by dialysis; format: physicochemical; settings: 37° C., 1×PBS pH 7.4, after 48 h
Description: Drug-loaded micelles were analyzed for their in vitro drug release profile at 37° C. in 1×PBS pH 7.4 over 48 hrs. Micelles were prepared as described previously. 500 μL of drug-loaded micelles were aliquoted into Spectra/Pro® regenerated cellulose dialysis membranes with a MWCO of 1,000 Da and dialyzed against a large excess of 1×PBS pH 7.4. At predetermined times, dialysis bags were opened and aliquots of sample were taken and diluted with 200 μL acetonitrile. Drug concentration was determined by HPLC using previously described methods.

[8] = tested on: A2780 ovarian carcinoma; test: A2780 cell viability, CellTiter-Blue, free and micellar formulations; format: cell-based, human; settings: for cytotoxicity as free compound compared to DM-PIT-1: A2780, 24 h
Description: Cell viability of A2780 ovarian carcinoma was measured using CellTiter-Blue® (Promega, Madison, Wis.) viability assay. Briefly, cells were seeded in 96-well plates according to proper cell densities (3,000-5,000 cells). After 24 h incubation in 5% CO2 at 37° C., cells were treated with formulations at various concentrations for 24 h in serum complete media. After 24 h treatment, media was removed, the wells were washed with serum complete media and replaced with 50 μL media and 10 μL CellTiter-Blue®. Cell viability was evaluated after 4 h of incubation at 37° C. at 5% CO2 by measuring the fluorescence (ex. 550 nm, em. 590 nm) using a Synergy HT multi-detection microplate reader (Biotek, Winooski, Vt.).

[9] = mouse, in vivo
[10] = in DMSO, without TRAIL, read-out: EC50 alone
[11] = with 1 μg/mL TRAIL, read-out: EC50 with TRAIL

Sequence of Akt PH domain (P31749 5-108 limits assumed): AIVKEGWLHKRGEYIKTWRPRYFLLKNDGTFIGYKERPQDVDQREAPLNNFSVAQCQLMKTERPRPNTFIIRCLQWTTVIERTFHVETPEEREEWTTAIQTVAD

In the case of `O=C(c1cc(C(F)(F)F)cc(C(F)(F)F)c1)c1cn(-c2cc(Cl)ccc2O)nn1` [YK-NCL-240, (3,5-Bis(trifluoromethyl)phenyl)(1-(5-chloro-2-hydroxyphenyl)-1H-1,2,3-triazol-4-yl)methanone], the “concentration at which cell viability was reduced by at least 50 percent” value [1] is reported as under 6.25 µM, the “cell viability in combination with TRAIL” value ([1]; with 1 μg/mL TRAIL) is reported as “further reduced cell viability” and the “improvement of EC50 compared to DM-PIT-1 alone” value ([1]; A2780, alone) is reported as 15 fold. The “improvement of EC50 compared to the combination of DM-PIT-1 and TRAIL” value ([1]; A2780, with TRAIL) was 20 fold, the EC50 [1, 10] was 1.85 µM and the EC50 [1, 11] was 1.11 µM. For the same compound, the “effect of combination with TRAIL on cell viability” value (“effect of combination with TRAIL” below) ([2]; 1 μg/mL TRAIL) was “synergistic effect”, the “in vitro cell viability” value ([2]; in DMSO, alone) was “reduce in vitro cell viability” and the “effect of combination with TRAIL” value ([3]; 1 μg/mL TRAIL) was “synergistic effect”. For the same compound, the “in vitro cell viability” value ([3]; in DMSO, alone) was “reduce in vitro cell viability”, the “effect of combination with TRAIL” value ([4]; DU145, 1 μg/mL TRAIL) was “synergistic effect” and the “in vitro cell viability” value ([4]; DU145, in DMSO, alone) was “reduce in vitro cell viability”. The “inhibition of cell migration (wound closure)” value [5] was “significantly more effectively than either DM-PIT-1 or YK-NCL-176”, the “binding of the Akt PH domain to PIP3” value [6] was “robustly inhibited” and the “drug released from micelles” value [7] was 60%. The “cytotoxicity as free compound compared to DM-PIT-1” value [8] was “improved cytotoxicity properties”, the “cytotoxicity on addition of TRAIL to the formulation” value ([8]; A2780, micellar formulation plus TRAIL) was “markedly increased cytotoxicity” and the non-toxic dose [9] was “up to 50 mg/kg”.
With `Oc1ccc(Cl)cc1-n1cc(C(O)(c2cc(C(F)(F)F)cc(C(F)(F)F)c2)c2cn(-c3cc(Cl)ccc3O)nn2)nn1` [YK-NCL-198, 2,2′-(((3,5-Bis(trifluoromethyl)phenyl)(hydroxy)methylene)bis(1H-1,2,3-triazole-4,1-diyl))bis(4-chlorophenol)] the “concentration at which cell viability was reduced by at least 50 percent” value [1] was 12.5 µM, the “cell viability in combination with TRAIL” value ([1]; with 1 μg/mL TRAIL) was “further reduced cell viability” and the EC50 [2, 10] was 34.8 µM. For the same compound, the EC50 [2, 11] was 18.8 µM, the “drug released from micelles” value [7] was 40% and the “cytotoxicity as free compound compared to DM-PIT-1” value [8] was “improved cytotoxicity properties”. The melting point was 214 °C.
